Laboratory results from patent US20030031689A1, “Method of skin exfoliation” (priority 2001, published 2003).

Tests used:
[1] = tested on: skin flakiness (stratum corneocytes on the back of the hand); experiment: Reduction of skin flakiness (D-Squame discs, image analysis) after twice daily topical application to the hand; type: in vivo, human; conditions: used at 2%
Text: In tests conducted to compare the efficacy of various agents of this type, mannose-6-phosphate caused a reduction in skin flakiness that exceeded the reduction achieved by N-acetyl glucosamine, lactobionic acid, and various mixtures of alpha hydroxy acids, all used at the same or higher levels than the mannose-6-phosphate. In a representative test, mannose-6-phosphate used at 1% reduced skin flakiness, a common measure of exfoliation efficacy, at a level of 24% after two weeks of treatment and 36% at four weeks. […] Thus, mannose-6-phosphate is particularly and unexpectedly effective for desquamation.
Thirty female subjects between the ages of 21 and 65 are selected to test the efficacy of mannose-6-phosphate in reducing skin flakiness, an indicator of exfoliation efficacy. The subjects are instructed not to use moisturizers or any other products on their hands, and their baseline measurements are taken. […] At the end of two and four weeks the subjects return for testing without applying the product for at least 12 hours and they are re-evaluated under the same conditions. […]
To evaluate the efficacy of the treatment products, four D-Squame discs are firmly and evenly pressed on the back of each hand with a hand held uniform pressure device and removed by gently pulling away from the skin. […] Desquamation is evaluated from the D-Squame discs via an OPTIMA image analyzer. […]

[2] = tested on: Normal Human Dermal Fibroblasts(NHDF); experiment: Glycosaminoglycan synthesis by 3H-glucosamine incorporation in fibroblast cultures; type: cell-based; conditions: 48 hours
Protocol: Both mannose and mannose-6-phosphate are tested at various levels from 0.01 mg/ml to 1 mg/ml for their ability to increase the amount of glycosaminoglycans in Normal Human Dermal Fibroblasts(NHDF), using TGF- at 5 and 10 ng/ml as a positive control. NHDF cells are seeded and grown to confluence in a 24 well plate prior to being treated with the test extracts(n=3). At the same time as the treatment, the cultures are labeled with […] of ^3H-glucosamine. The cultures are incubated for 48 hours and extensively washed to remove unbound ^3H-glucosamine prior to being lysed and counted on a scintillation counter. The resulting counts represent newly synthesized glycosaminoglycans. Since glucosamine is required for glycosaminoglycan synthesis, the radioactive glucosamine added to the culture will be incorporated into any glycosaminoglycans synthesized after the addition of the treatment samples. Relative protein levels are determined by comparing the absorbance at 280 nm, of the cell lysates, to the absorbances of a bovine serum albumin curve. […] TGF-, the positive control, is found to increase levels by 28% at 10 ng/ml.

Row | SMILES | reduction in skin flakiness ([1]; after two weeks of treatment) [%] | reduction in skin flakiness ([1]; at four weeks) [%] | increase of glycosaminoglycan levels (normalized to protein levels) ([2]; 0.1 mg/ml) [%] | effect on glycosaminoglycan levels ([2]; levels lower and higher than 0.1 mg/ml (tested 0.01 mg/ml to 1 mg/ml))
1 | O=C(O)[C@H](O)[C@@H](O)[C@H](O[C@@H]1O[C@H](CO)[C@H](O)[C@H](O)[C@H]1O)[C@H](O)CO [lactobionic acid] | 16 | 25 |  | 
2 | O=C[C@@H](O)[C@@H](O)[C@H](O)[C@H](O)COP(=O)(O)O [mannose-6-phosphate] |  |  | 20 | did not have any significant effect
